Laboratory results published in patent US5547674A, “Pharmaceutical preparations derived from European mistletoe” (priority 1995, dated 1996).

Assays:
[1] = test system: AIDS patients; conditions: human, in vivo; cited from earlier work
[2] = test system: reverse transcriptase; conditions: cited from earlier work
[3] = Weight change of tumor bearing B6C3F1 mice (toxic effects); type: in vivo; conditions: i.p., 98 mg/kg, qd (1,7,14,21)
Protocol: (§1) The amount of protein in the alkaloidal and viscotoxin fractions were also determined to be within the required fingerprint ranges. Anticancer activities of T4GEN were studied in animals bearing subcutaneous transplants of C3H Mammary adenocarcinoma 16/C. This tumor is maintained as a lung framed tumor in C3H female mice. In this example, tumors (1×10^6 cells) were transplanted (S.C.) in 18-20 g B6C3F1 hybrid female mice. On the following day, the tumor beating animals were randomized and separated into different treatment groups (10 mice per group). There were 15 animals in the control group who received only physiological saline during the treatment periods. The treatments (i.p.) were staged 48 hours after the transplants and given for a duration of 14 days (daily single injections).Animals were weighed on days 5, 9 and 14 to assess toxic effects. Tumors were measured on day 21 post transplants and the results are represented as tumor weights using formula [formula] (l=length of tumor, w=width of tumor expressed in mm).

[4] = test system: C3H Mammary adenocarcinoma 16/C; assay: Growth of subcutaneous transplants of C3H mammary adenocarcinoma 16/C in B6C3F1 female mice; type: in vivo; conditions: i.p., 98 mg/kg, qd (1,7,14,21)
Protocol: as §1

Structure (SMILES): OC[C@@H]1CC[C@H](n2cnc3c(O)ncnc32)O1 [ddI, 2',3'-dideoxyinosine]
- toxic side effects [1]: serious toxic side effects including immunosuppression
- inhibition of reverse transcriptase [2]: inhibit reverse transcriptase

Structure (SMILES): O=c1[nH]cc(F)c(=O)[nH]1 [5FIuorouracil]
- Δ Wts (day 14) [3]: +1.77 g
- Tumor Weight Inhibition [4]: 100%
- Tumor Wts (day 21) ([4]; saline controls 0.27): 0.00
- Tumor Free Animals (day 93) ([4]; saline controls 1/15): 0/6

Structure (SMILES): Nc1ccn([C@H]2CC[C@@H](CO)O2)c(=O)n1 [ddC, 2',3'-dideoxycytidine]
- toxic side effects [1]: serious toxic side effects including immunosuppression
- inhibition of reverse transcriptase [2]: inhibit reverse transcriptase

Structure (SMILES): Cc1cn([C@H]2C[C@H](N=[N+]=[N-])[C@@H](CO)O2)c(=O)[nH]c1=O [AZT, azidothymidine]
- toxic side effects [1]: serious toxic side effects including immunosuppression
